One test concerns platelet aggregation. As to the kind of experiment: Inhibition of platelet aggregation (collagen-induced, Born and Cross, platelet-rich plasma of healthy volunteers). Particulars: 10 minutes preincubation at 37° C. The class given is cell-based. As to the method:
In order to do this, donor blood is taken from an anticubital vein and anticoagulated with trisodium citrate (final concentration 13 mM). The blood is centrifuged for 10 minutes at 170×g and the supernatant platelet-rich plasma (PRP) is removed. The remaining blood is vigorously centrifuged once more in order to obtain plasma. The PRP is diluted 1:10 with autologous plasma. 750 μl are incubated with 50 μl of physiological saline solution, 100 μl of test substance solution, 50 μl of ^14 C-sucrose (3,700 Bq) and 50 μl of ^3 H-BIBU 52 (final concentration: 5 nM) at ambient temperature for 20 minutes. In order to measure the non-specific binding, 5μl of BIBU 52 (final concentration: 30 μM) are used instead of the test substance. The samples are centrifuged for 20 seconds at 10,000×g and the supernatant is poured off. 100 μl thereof are measured in order to determine the free ligand. The pellet is dissolved in 500 μl of 0.2N NaOH, 450 μl are mixed with 2 ml of scintillator and 25 μl of 5N HCl and measured. The residual plasma remaining in the pellet is determined from the ^14 C-content and the bound ligand is determined from the ^3 H-measurement. After the non-specific binding has been deducted, the pellet activity is plotted against the concentration of the test substance and the concentration for 50% inhibition of binding is determined. 2. Antithrombotic activity The thrombocyte aggregation is measured using the method of Born and Cross (J. Physiol. 170: 397 (1964)) in platelet-rich plasma taken from healthy volunteers. To inhibit coagulation the blood is mixed with 3.14% sodium citrate in a volume ratio of 1:10. The pattern of the decrease in optical density of the platelet suspension is photometrically measured and recorded after the addition of the aggregation-triggering substance. The rate of aggregation is determined from the angle of inclination of the density curve. The point on the curve where there is maximum light transmittance is used to calculate the optical density. The concentration of collagen used is as small as possible but sufficient to produce an irreversible reaction curve. Standard commercial collagen produced by Hormonchemie of Munich is used. Before the addition of the collagen the plasma is incubated for 10 minutes with the substance at 37° C. From the concentration/activity curve an EC50 is determined, which describes the concentration giving a 50% change in the optical density in terms of the inhibition of aggregation.

The target in a further test is human thrombocytes. As to the kind of experiment: Competitive binding of ^3 H-BIBU 52/test substance to human thrombocytes. Particulars: human thrombocytes in plasma; ^3 H-BIBU 52 5 nM; ambient temperature, 20 minutes. On the procedure: 1. Competitive binding of ^3 H-BIBU 52/test substance to human thrombocytes: […] Case 5/1093-FL), which replaces the ^125 I fibrinogen ligand known from the literature and various concentrations of the substance to be tested. The free and bound ligand is separated by centrifuging and quantified by scintillation counting. The inhibition of ^3 H-BIBU 52 binding by the test substance is determined from the measurements obtained. In order to do this, donor blood is taken from an anticubital vein and anticoagulated with trisodium citrate (final concentration 13 mM). The blood is centrifuged for 10 minutes at 170×g and the supernatant platelet-rich plasma (PRP) is removed. The remaining blood is vigorously centrifuged once more in order to obtain plasma. The PRP is diluted 1:10 with autologous plasma. 750 μl are incubated with 50 μl of physiological saline solution, 100 μl of test substance solution, 50 μl of ^14 C-sucrose (3,700 Bq) and 50 μl of ^3 H-BIBU 52 (final concentration: 5 nM) at ambient temperature for 20 minutes. In order to measure the non-specific binding, 5μl of BIBU 52 (final concentration: 30 μM) are used instead of the test substance. The samples are centrifuged for 20 seconds at 10,000×g and the supernatant is poured off. 100 μl thereof are measured in order to determine the free ligand. The pellet is dissolved in 500 μl of 0.2N NaOH, 450 μl are mixed with 2 ml of scintillator and 25 μl of 5N HCl and measured. The residual plasma remaining in the pellet is determined from the ^14 C-content and the bound ligand is determined from the ^3 H-measurement. After the non-specific binding has been deducted, the pellet activity is plotted against the concentration of the test substance and the concentration for 50% inhibition of binding is determined. 2. Antithrombotic activity

Where a name gives a salt, the structure may show the parent alone.

For the molecule `N=C(N)c1ccc(N2CCN(C(=O)N3CC=C(CC(=O)O)CC3)CC2)cc1` [2(19), 1-(4-amidinophenyl)-4-[4-(carboxymethyl)-3,4-dehydro-piperidinocarbonyl]-piperazine-dihydrochloride], the EC50 (commonly the concentration at which the effect is half-maximal) with platelet aggregation (Homo sapiens, Platelet) was 620 nM. Moreover, the IC50 (usually the concentration at which inhibition is half-maximal) on human thrombocytes was found to be 370 nM.

Molecule `N=C(N)c1ccc(N2CCC(C(=O)N(CCc3ccccc3)[C@H]3CC[C@H](C(=O)O)CC3)CC2)cc1` [3(24), 1-(4-amidinophenyl)-4-[N-(trans-4-carboxycyclohexyl)-N-(2-phenylethyl)-aminocarbonyl]-piperidine] had an EC50 in the test on platelet aggregation (Homo sapiens, Platelet) of 110 nM. The same molecule showed an IC50 at human thrombocytes of 9.1 nM.

In the test with platelet aggregation (Homo sapiens, Platelet), `N=C(N)c1ccc(N2CCC(C(=O)N3CCC(CC(=O)O)CC3)CC2)cc1` [3(4), 1-(4-amidinophenyl)-4-[4-(carboxymethyl)-piperidino-carbonyl]-piperidine] gave an EC50 of 100 nM. The same molecule came in with an IC50 at human thrombocytes of 78 nM.

`N=C(N)c1ccc(N2CCN(C(=O)N(Cc3ccccc3)[C@H]3CC[C@H](C(=O)O)CC3)CC2)cc1` [2(6), 1-(4-amidinophenyl)-4-[N-benzyl-N-(trans-4-carboxycyclohexyl)-aminocarbonyl]-piperazine-dihydrochloride]: the EC50 in the test on platelet aggregation (Homo sapiens, Platelet) is 40 nM. Also, the IC50 on human thrombocytes was determined as 1.5 nM.

For `COC(=O)[C@H]1CC[C@H](N(C)C(=O)N2CCN(c3ccc(C(=N)N)cc3)CC2)CC1` [1(1), 1-(4-amidinophenyl)-4-[N-[trans-4-(methoxycarbonyl)-cyclohexyl]-N-methyl-aminocarbonyl]-piperazine-hydrochloride], a half-maximal response in the test on platelet aggregation (Homo sapiens, Platelet) (EC50) required 110 nM. This molecule also came in with an IC50 at human thrombocytes of 870 nM.

In the test with platelet aggregation (Homo sapiens, Platelet), `CN(C(=O)N1CCN(c2ccc(C(=N)N)cc2)CC1)[C@H]1CC[C@H](C(=O)OC2CCCCC2)CC1` [7(2), 1-(4-amidinophenyl)-4-[N-[trans-4-(cyclohexyloxy-carbonyl)-cyclohexyl]-N-methyl-aminocarbonyl]-piperazine-dihydrochloride] yielded a half-maximal effective concentration (EC50) of 360 nM. In addition, on human thrombocytes, the IC50 came to 2100 nM.

With `N=C(N)c1ccc(C2CCN(C(=O)N[C@H]3CC[C@H](C(=O)O)CC3)CC2)cc1` [3(2), 4-(4-amidinophenyl)-1-[N-(trans-4-carboxycyclohexyl)-aminocarbonyl]-piperidine], a half-maximal response in the test on platelet aggregation (human platelet-rich plasma) (EC50) required 100 nM. On human thrombocytes, this molecule showed a concentration for half-maximal inhibition (IC50) of 14 nM.

On to `NCc1ccc(N2CCC(C(=O)N[C@H]3CC[C@H](C(=O)O)CC3)CC2)cc1` [3(17), 1-(4-aminomethylphenyl)-4-[N-(trans-4-carboxycyclo-hexyl)-aminocarbonyl]-piperidine-hydrochloride], for which, in the test with platelet aggregation (Homo sapiens, Platelet), the EC50 amounted to 180 nM. The same molecule registered an IC50 on human thrombocytes of 74 nM.

As for `COC(=O)CC1CCN(C(=O)N2CCN(c3ccc(C(=N)N)cc3)CC2)CC1` [1(25), 1-(4-amidinophenyl)-4-[4-(methoxycarbonylmethyl)-piperidinocarbonyl]-piperazine-hydrochloride], the response in the test on platelet aggregation (Homo sapiens, Platelet) was half-maximal at 6800 nM (EC50). This molecule also returned an IC50 on human thrombocytes of 30000 nM.

`N=C(N)c1ccc(N2CCC(C(=O)N(CCCc3ccccc3)[C@H]3CC[C@H](C(=O)O)CC3)CC2)cc1` [3(25), 1-(4-amidinophenyl)-4-[N-(trans-4-carboxycyclohexyl)-N-(3-phenylpropyl)-aminocarbonyl]-piperidine] gave an EC50 with platelet aggregation (Homo sapiens, Platelet) of 52 nM. The IC50 at human thrombocytes was found to be 4 nM.

In turn, `N=C(N)c1ccc(N2CCC(CC(=O)NCCC(=O)O)CC2)cc1` [3(12), 1-(4-amidinophenyl) -4-[N-(2-carboxyethyl)-amino-carbonylmethyl]-piperidine] yielded an EC50 in the test with platelet aggregation (Homo sapiens, Platelet) of 290 nM. For the same molecule, at human thrombocytes, the concentration for half-maximal inhibition (IC50) was 180 nM.

As for `CCOC(=O)[C@H]1CC[C@H](NC(=O)N2CCN(c3ccc(C(=N)N)cc3)CC2)CC1` [Example 8, 1-(4-Amidinophenyl)-4-[N-[trans-4-(ethoxycarbonyl)-cyclohexyl]-aminocarbonyl]-piperazine-dihydrochloride], it took 190 nM to reach a half-maximal effect in the test on platelet aggregation (Homo sapiens, Platelet) (EC50). Also, at human thrombocytes, the IC50 is 540 nM.

As to `CN(C(=O)N1CCN(c2ccc(C(=N)N)cc2)CC1)[C@H]1CC[C@H](C(=O)O)CC1` [2(1), 1-(4-amidinophenyl)-4-[N-(trans-4-carboxycyclohexyl)-N-methyl-aminocarbonyl]-piperazine-dihydrochloride], in the test with platelet aggregation (Homo sapiens, Platelet), a half-maximal response (EC50) required 40 nM. At human thrombocytes, this molecule returned an IC50 of 18 nM.

In the test on platelet aggregation (Homo sapiens, Platelet), `N=C(N)c1ccc(N2CCC(C(=O)N[C@H]3CC[C@H](C(=O)O)CC3)CC2)cc1` [3(15), 1-(4-amidinophenyl)-4-[N-(trans-4-carboxycyclo-hexyl)-aminocarbonyl]-piperidine] registered an EC50 of 30 nM. On human thrombocytes, this molecule gave an IC50 of 5.7 nM.

Turning to `COC(=O)[C@H]1CC[C@H](NC(=O)N2CCC(c3ccc(C(=N)N)cc3)CC2)CC1` [1(5), 4-(4-amidinophenyl)-1-[N-[trans-4-(methoxycarbonyl)-cyclohexyl]-aminocarbonyl]-piperidine-hydrochloride], the EC50 with platelet aggregation (Homo sapiens, Platelet) was found to be 80 nM. This molecule also displayed an IC50 at human thrombocytes of 1200 nM.

In turn, `N=C(N)c1ccc(N2CCC(C(=O)N3CCC(CC(=O)O)CC3)CC2)nc1` [2(42), 1-(5-amidinopyrid-2-yl)-4-[4-(carboxymethyl)-piperidinocarbonyl]-piperidine-dihydrochloride] displayed an EC50 in the test on platelet aggregation (Homo sapiens, Platelet) of 170 nM. In addition, the IC50 on human thrombocytes turned out to be 100 nM.

`N=C(NC(=O)OCc1ccccc1)c1ccc(N2CCN(C(=O)N[C@H]3CC[C@H](C(=O)O)CC3)CC2)cc1` [3(1), 1-[4-(N-benzyloxycarbonyl-amidino)-phenyl]-4-[N-(trans-4-carboxycyclohexyl)-aminocarbonyl]-piperazine] registered an EC50 in the test on platelet aggregation (Homo sapiens, Platelet) of 660 nM. For the same molecule, the IC50 at human thrombocytes turned out to be 230 nM.

Molecule `N=C(N)c1ccc(N2CCN(C(=O)N3CCC(CC(=O)O)CC3)CC2)cc1` [2(17), 1-(4-amidinophenyl)-4-[4-(carboxymethyl)-piperidinocarbonyl]-piperazine-dihydrochloride] came in with an EC50 with platelet aggregation (Homo sapiens, Platelet) of 130 nM. The half-maximal inhibitory concentration (IC50) on human thrombocytes was 44 nM.

In turn, `CCCCCN(C(=O)C1CCN(c2ccc(C(=N)N)cc2)CC1)[C@H]1CC[C@H](C(=O)O)CC1` [3(26), 1-(4-amidinophenyl)-4-[N-(trans-4-carboxycyclohexyl)-N-(n-pentyl)-aminocarbonyl]-piperidine] yielded an EC50 in the test with platelet aggregation (Homo sapiens, Platelet) of 65 nM. At human thrombocytes, the IC50 was 12 nM.

Consider `N=C(N)c1ccc(N2CCC(C(=O)N[C@H]3CC[C@H](C(=O)O)CC3)CC2)nc1` [2(2), 1-(5-amidinopyrid-2-yl)-4-[N-(trans-4-carboxycyclohexyl)-aminocarbonyl]-piperidine-dihydrochloride], for which a half-maximal effect in the test on platelet aggregation (Homo sapiens, Platelet) (EC50) was put at 90 nM. Further, the IC50 on human thrombocytes was 47 nM.

For `COC(=O)[C@H]1CC[C@H](NC(=O)N2CCN(c3ccc(CN)cc3)CC2)CC1` [Example 4, 1-(4-Aminomethylphenyl)-4-[N-[trans-4-(methoxycarbonyl)-cyclohexyl]-aminocarbonyl]-piperazine-hydrochloride], a half-maximal response with platelet aggregation (Homo sapiens, Platelet) (EC50) required 4300 nM. Also, the IC50 on human thrombocytes turned out to be 5300 nM.

In turn, `NCc1ccc(N2CCN(C(=O)N[C@H]3CC[C@H](C(=O)O)CC3)CC2)nc1` [2(22), 1-(5-aminomethylpyrid-2-yl)-4-[N-(trans-4-carboxycyclohexyl)-aminocarbonyl]-piperazine-dihydrochloride] showed an EC50 in the test on platelet aggregation (Homo sapiens, Platelet) of 680 nM. In addition, on human thrombocytes, the IC50 was found to be 310 nM.

Values taken from patent publication US5442064A, “Carboxylic acid derivatives, pharmaceutical compositions containing these compounds and processes for preparing them” (Dr. Karl Thomae GmbH, priority 1992, dated 1995).
